These results are taken from US5744339A, “Thiomethylene group-containing aldehyde cysteine and serine protease inhibitors” (Cephalon, Inc., priority 1996, dated 1998).

One may read the IC50 as the concentration that inhibits the measured activity by half.

What all share (type): biochemical
The target of one assay is T1, Calpain I (Homo sapiens, UniProt P07384).
T1 construct: made in house
T1 sequence (P07384 1-714): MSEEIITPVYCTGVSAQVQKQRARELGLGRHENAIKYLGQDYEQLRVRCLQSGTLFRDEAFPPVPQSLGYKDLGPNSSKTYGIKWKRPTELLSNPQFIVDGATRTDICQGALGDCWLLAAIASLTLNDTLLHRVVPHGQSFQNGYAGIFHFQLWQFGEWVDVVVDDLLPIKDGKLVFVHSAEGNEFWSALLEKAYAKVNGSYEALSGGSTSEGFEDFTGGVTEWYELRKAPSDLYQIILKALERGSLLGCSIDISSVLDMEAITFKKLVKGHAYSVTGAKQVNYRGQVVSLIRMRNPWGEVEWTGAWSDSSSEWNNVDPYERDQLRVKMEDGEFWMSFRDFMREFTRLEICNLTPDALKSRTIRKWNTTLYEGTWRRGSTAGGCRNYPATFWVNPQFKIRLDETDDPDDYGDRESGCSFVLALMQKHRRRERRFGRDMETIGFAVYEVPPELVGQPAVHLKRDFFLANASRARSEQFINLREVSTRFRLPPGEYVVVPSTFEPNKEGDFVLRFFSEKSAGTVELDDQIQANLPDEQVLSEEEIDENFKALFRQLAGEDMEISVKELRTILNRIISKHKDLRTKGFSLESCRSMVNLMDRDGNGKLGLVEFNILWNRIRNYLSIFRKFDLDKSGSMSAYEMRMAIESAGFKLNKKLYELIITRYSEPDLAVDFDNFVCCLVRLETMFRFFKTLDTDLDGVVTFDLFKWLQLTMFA
T1 sequence (P04632 1-268 partner): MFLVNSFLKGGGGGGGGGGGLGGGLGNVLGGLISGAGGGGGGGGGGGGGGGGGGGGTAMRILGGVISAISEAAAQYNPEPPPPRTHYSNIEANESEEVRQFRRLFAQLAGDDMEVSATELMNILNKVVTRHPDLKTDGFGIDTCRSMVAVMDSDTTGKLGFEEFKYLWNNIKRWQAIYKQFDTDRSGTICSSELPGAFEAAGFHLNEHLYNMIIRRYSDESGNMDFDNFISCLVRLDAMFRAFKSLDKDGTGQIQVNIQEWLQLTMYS
The assay is described as follows: Inhibition of calpain I (cysteine protease) activity. The settings on record: 0.2 mM Succ-Leu-Tyr-MNA, pH 7.5, CaCl2 start. On the procedure: (§1) To evaluate inhibitory activity, stock solutions (40 times concentrated) of each compound to be tested were prepared in 100% anhydrous DMSO and 5 μL of each inhibitor preparation were aliquoted into each of three wells of a 96-well plate. Calpain I, prepared by a modification of the method of W. J. Lee et al. (Biochem. […] To start the reaction, 20 μL of 50 mM CaCl2 in assay buffer was added to all wells of the plate, excepting three, which were used as background signal baseline controls. Substrate hydrolysis was monitored every 5 minutes for a total of 30 minutes using a Fluoroskan II fluorescence plate reader. Substrate hydrolysis in the absence of inhibitor was linear for up to 15 minutes. Inhibition of calpain I activity was calculated as the percent decrease in the rate of substrate hydrolysis in the presence of inhibitor relative to the rate in its absence. Comparison between the inhibited and control rates was made within the linear range for substrate hydrolysis. For screening, compounds were tested at 10 μm. Compounds having 50% inhibition at 10 μM were considered active. […] The results were plotted as % inhibition versus log inhibitor concentration and the IC50 was calculated from linear regression of the data.

For the next assay, the target named is T2, cathepsin B (Homo sapiens, UniProt P07858).
T2 construct: purchased Calbiochem 219364
The assay is described as follows: Inhibition of cathepsin B (cysteine protease) activity. The following applies: 0.1 mM Cbz-Phe-Arg-AMC, pH 6.0; read-out: Cat B IC50. The procedure:
as §1, with “data. […] Additionally, the order of reagents added to the plate was altered because both enzymes are constitutively active. Following inhibitor addition to the plates, appropriate 2× concentrated stock dilutions of the enzyme preparations were made in assay buffer and 10 ul added to each well. The assay was initiated by addition of 100 ul of 2× concentrated stock dilution of substrate in assay buffer. Substrate hydrolysis was monitored using a Fluoroskan II (ex=390 nm; em=460 nm).” for “data.”

The target in another assay is T3, cathepsin L (Homo sapiens, UniProt P07711).
T3 construct: purchased Calbiochem 219402
Briefly: Inhibition of cathepsin L (cysteine protease) activity. The following applies: 0.006 mM Cbz-Phe-Arg-AMC, pH 6.0; read-out: Cat L IC50. The procedure:
(§2) To evaluate inhibitory activity, stock solutions (40 times concentrated) of each compound to be tested were prepared in 100% anhydrous DMSO and 5 μL of each inhibitor preparation were aliquoted into each of three wells of a 96-well plate. Calpain I, prepared by a modification of the method of W. J. Lee et al. (Biochem. Internatl. 22: 163-171 (1990)), was diluted into assay buffer (i.e., 50 mM Tris, 50 mM NaCl, 1 mM EDTA, 1 mM EGTA, and 5 mM β-mercaptoethanol, pH 7.5 including 0.2 mM Succ-Leu-Tyr-MNA) and 175 μL aliquoted into the same wells containing the independent inhibitor stocks, as well as to positive control wells containing 5 μL DMSO, but no compound. To start the reaction, 20 μL of 50 mM CaCl2 in assay buffer was added to all wells of the plate, excepting three, which were used as background signal baseline controls. Substrate hydrolysis was monitored every 5 minutes for a total of 30 minutes using a Fluoroskan II fluorescence plate reader. Substrate hydrolysis in the absence of inhibitor was linear for up to 15 minutes.
(§3) Inhibition of calpain I activity was calculated as the percent decrease in the rate of substrate hydrolysis in the presence of inhibitor relative to the rate in its absence. Comparison between the inhibited and control rates was made within the linear range for substrate hydrolysis. For screening, compounds were tested at 10 μm. Compounds having 50% inhibition at 10 μM were considered active. The IC50s of inhibitors (i.e., the concentration yielding 50% inhibition) were determined from the percent decrease in the rates of substrate hydrolysis in the presence of five to seven different concentrations of the test compound. The results were plotted as % inhibition versus log inhibitor concentration and the IC50 was calculated from linear regression of the data.
Additionally, the order of reagents added to the plate was altered because both enzymes are constitutively active. Following inhibitor addition to the plates, appropriate 2× concentrated stock dilutions of the enzyme preparations were made in assay buffer and 10 ul added to each well.
The assay was initiated by addition of 100 ul of 2× concentrated stock dilution of substrate in assay buffer. Substrate hydrolysis was monitored using a Fluoroskan II (ex=390 nm; em=460 nm).

The target in the next assay is T4, thrombin (Homo sapiens, UniProt P00734).
T4 construct: purchased Sigma Chem. Co. T-7009
Briefly: Inhibition of thrombin (serine protease) activity. The settings on record: 10 μM inhibitor; 25 μM Bz-Phe-Val-Arg-AMC, pH 7.5; read-out: Thrombin % I @ 10 μM. The procedure: (§4) Additionally,because α-chymotrypsin is not a calcium sensitive enzyme and is constitutively active, following addition of inhibitor stocks to the 96 well plates, 100 μl of a 2-fold concentrated stock of enzyme in dilution buffer was first added and the reaction started by addition of 10 μl of a 2-fold concentrated stock of substrate in assay buffer. Substrate hydrolysis was monitored every 5 minutes up to 30 minutes using a Fluoroskan II ([…]). The result is expressed as inhibition of α-chymotrypsin at 10 μM.
Inhibition of thrombin (Sigma Chem. Co. Cat. #T-7009) was evaluated as described for chymotrypsin except that the assay was performed in 50 mM Tris, 10 mM CaCl2, pH 7.5 and the substrate was 25 μM Bz-Phe-Val-Arg-AMC (Bachem cat#I-1080).

The target of the next assay is T5, α-chymotrypsin (Bos taurus, UniProt P00766).
T5 construct: purchased Sigma Chem. Co. C-3142
The assay is described as follows: Inhibition of α-chymotrypsin (serine protease) activity. The settings on record: 10 μM inhibitor; 0.03 mM SuccAla-Ala-Pro-Phe-AMC, pH 7.5; read-out: Chymotrypsin % I @ 10 μM. On the procedure:
as §2, §3, §4

T3 sequence (P07711 114-288 limits assumed): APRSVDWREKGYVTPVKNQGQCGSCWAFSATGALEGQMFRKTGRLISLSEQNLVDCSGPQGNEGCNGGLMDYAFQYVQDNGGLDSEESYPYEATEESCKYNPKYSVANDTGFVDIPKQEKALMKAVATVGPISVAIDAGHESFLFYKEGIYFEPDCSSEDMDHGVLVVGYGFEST
T3 sequence (P07711 292-333 limits assumed): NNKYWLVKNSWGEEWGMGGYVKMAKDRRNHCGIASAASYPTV

`CC(C)C[C@@H](CCS(=O)(=O)c1ccc2ccccc2c1)C(=O)N[C@H](C=O)CC(C)C` [Compound 9, 2-Naphthylsulfonyl--CH2 CH2 CH(iBu)CO--Leu--H]: the IC50 at Calpain I was determined as 500 nM; on cathepsin B, 4500 nM; on cathepsin L, 32 nM. For the same compound, the inhibition at 10 µM on thrombin was 2%; at α-chymotrypsin it was 12%.
`CC(C)CC(CC[S+]([O-])c1ccc2ccccc2c1)C(=O)N[C@H](C=O)CC(C)C` (some centres unmarked) [Compound 13, 2-Naphthyl--S(O)--CH2 CH2 CH(iBu)CO--Leu--H]: the IC50 at Calpain I came to 30 nM; on cathepsin B it was 60 nM; at cathepsin L, 3 nM. For the same compound, the results for the inhibition at 10 µM on thrombin and on α-chymotrypsin were 2% and 18%, respectively.
Turning to `CC(C)CC(CCSc1ccc2ccccc2c1)C(=O)N[C@H](C=O)CC(C)C` (some centres unmarked) [Compound 11, 2-Naphthyl--SCH2 CH2 CH(iBu)CO--Leu--H], the IC50 against Calpain I was 75 nM; at cathepsin B, 60 nM; at cathepsin L it was 8 nM. Also, the inhibition at 10 µM at thrombin stood at 5%; at α-chymotrypsin it was 11%.
In the case of `CC(C)C[C@H](CCS(=O)(=O)c1ccc2ccccc2c1)C(=O)N[C@H](C=O)CC(C)C` [Compound 10, 2-Naphthylsulfonyl--CH2 CH2 CH(iBu)CO--Leu--H], the IC50 is 50 nM against Calpain I, 150 nM at cathepsin B and 3 nM on cathepsin L. Moreover, the inhibition at 10 µM stood at 1% at thrombin and 11% on α-chymotrypsin.
